≈ marks a conversion by molar mass, not a printed value. Calls of active or inactive are those of the source. No cut-off for these calls is given here.
Legend:
Botrytis cinerea [1] = test: Curative antifungal activity against Botryotinia fuckeliana inoculated in strawberry fruit assessed as disease control efficacy at 100 ug AI/ml applied 24 hr post-inoculation relative to control; type: functional
Botrytis cinerea [2] = test: Curative antifungal activity against Botryotinia fuckeliana inoculated in strawberry fruit assessed as disease control efficacy at 50 ug AI/ml applied 24 hr post-inoculation relative to control; type: functional
Botrytis cinerea [3] = test: Curative antifungal activity against Botryotinia fuckeliana inoculated in strawberry fruit assessed as disease control efficacy at 10 ug AI/ml applied 24 hr post-inoculation relative to control; type: functional
Botrytis cinerea [4] = test: Curative antifungal activity against Botryotinia fuckeliana inoculated in strawberry fruit assessed as disease control efficacy at 1 ug AI/ml applied 24 hr post-inoculation relative to control; type: functional
Botrytis cinerea [5] = test: Curative antifungal activity against Botryotinia fuckeliana inoculated in strawberry fruit assessed as disease severity measuring lesion diameter at 100 ug AI/ml applied 24 hr post-inoculation; type: functional
Botrytis cinerea [6] = test: Curative antifungal activity against Botryotinia fuckeliana inoculated in strawberry fruit assessed as disease severity measuring lesion diameter at 50 ug AI/ml applied 24 hr post-inoculation; type: functional
Botrytis cinerea [7] = test: Curative antifungal activity against Botryotinia fuckeliana inoculated in strawberry fruit assessed as disease control efficacy at 100 ug AI/ml applied 48 hr post-inoculation relative to control; type: functional
Botrytis cinerea [8] = test: Curative antifungal activity against Botryotinia fuckeliana inoculated in strawberry fruit assessed as disease control efficacy at 50 ug AI/ml applied 48 hr post-inoculation relative to control; type: functional
Botrytis cinerea [9] = test: Curative antifungal activity against Botryotinia fuckeliana inoculated in strawberry fruit assessed as disease control efficacy at 10 ug AI/ml applied 48 hr post-inoculation relative to control; type: functional
Botrytis cinerea [10] = test: Curative antifungal activity against Botryotinia fuckeliana inoculated in strawberry fruit assessed as disease control efficacy at 1 ug AI/ml applied 48 hr post-inoculation relative to control; type: functional
Botrytis cinerea [11] = test: Curative antifungal activity against Botryotinia fuckeliana inoculated in strawberry fruit assessed as disease severity measuring lesion diameter at 100 ug AI/ml applied 48 hr post-inoculation; type: functional
Botrytis cinerea [12] = test: Curative antifungal activity against Botryotinia fuckeliana inoculated in strawberry fruit assessed as disease severity measuring lesion diameter at 10 ug AI/ml applied 48 hr post-inoculation; type: functional
Botrytis cinerea [13] = test: Antifungal activity against Botryotinia fuckeliana obtained from cucumber isolate assessed as inhibition of spore germ tube growth; type: functional, organism-based
Botrytis cinerea [14] = test: Antifungal activity against Botryotinia fuckeliana obtained from grape isolate assessed as inhibition of spore germ tube growth; type: functional, organism-based
Botrytis cinerea [15] = test: Antifungal activity against Botryotinia fuckeliana obtained from tomato isolate assessed as inhibition of spore germ tube growth; type: functional, organism-based
Botrytis cinerea [16] = test: Antifungal activity against Botryotinia fuckeliana grown on YBA agar assessed as inhibition of mycelial growth at 5 ug/ml after 10 days; type: functional, organism-based
Botrytis cinerea [17] = test: Antifungal activity against Botryotinia fuckeliana grown on succinate medium assessed as inhibition of germ tube growth at 5 ug/ml after 10 days; type: functional, organism-based
Botrytis cinerea [18] = test: Curative antifungal activity against Botryotinia fuckeliana inoculated in strawberry fruit assessed as disease control efficacy at 100 ug AI/ml applied 96 hr post-inoculation relative to control; type: functional
Botrytis cinerea [19] = test: Curative antifungal activity against Botryotinia fuckeliana inoculated in strawberry fruit assessed as disease control efficacy at 50 ug AI/ml applied 96 hr post-inoculation relative to control; type: functional
Botrytis cinerea [20] = test: Antifungal activity against Botryotinia fuckeliana grown on water agar assessed as inhibition of spore germination at 1 ug/ml after 10 days; type: functional, organism-based
Botrytis cinerea [21] = test: Protective antifungal activity against Botryotinia fuckeliana inoculated in fungicide-applied strawberry fruit assessed as disease control efficacy at 1 ug AI/ml applied 96 hr prior-inoculation relative to control; type: functional
Botrytis cinerea [22] = test: Protective antifungal activity against Botryotinia fuckeliana inoculated in fungicide-applied strawberry fruit assessed as disease severity measuring lesion diameter at 100 ug AI/ml applied 96 hr prior-inoculation; type: functional
Botrytis cinerea [23] = test: Protective antifungal activity against Botryotinia fuckeliana inoculated in fungicide-applied strawberry fruit assessed as disease severity measuring lesion diameter at 50 ug AI/ml applied 96 hr prior-inoculation; type: functional
Botrytis cinerea [24] = test: Protective antifungal activity against Botryotinia fuckeliana inoculated in fungicide-applied strawberry fruit assessed as disease severity measuring lesion diameter at 10 ug AI/ml applied 96 hr prior-inoculation; type: functional
Botrytis cinerea [25] = test: Protective antifungal activity against Botryotinia fuckeliana inoculated in fungicide-applied strawberry fruit assessed as disease severity measuring lesion diameter at 1 ug AI/ml applied 96 hr prior-inoculation; type: functional
Botrytis cinerea [26] = test: Curative antifungal activity against Botryotinia fuckeliana inoculated in strawberry fruit assessed as disease severity measuring lesion diameter at 1 ug AI/ml applied 96 hr post-inoculation; type: functional
Botrytis cinerea [27] = test: Protective antifungal activity against Botryotinia fuckeliana inoculated in fungicide-applied strawberry fruit assessed as disease severity measuring lesion diameter at 50 ug AI/ml applied 24 hr prior inoculation; type: functional
Botrytis cinerea [28] = test: Protective antifungal activity against Botryotinia fuckeliana inoculated in fungicide-applied strawberry fruit assessed as disease severity measuring lesion diameter at 1 ug AI/ml applied 24 hr prior inoculation; type: functional
Botrytis cinerea [29] = test: Protective antifungal activity against Botryotinia fuckeliana inoculated in fungicide-applied strawberry fruit assessed as disease control efficacy at 100 ug AI/ml applied 48 hr prior inoculation relative to control; type: functional
Botrytis cinerea [30] = test: Protective antifungal activity against Botryotinia fuckeliana inoculated in fungicide-applied strawberry fruit assessed as disease control efficacy at 50 ug AI/ml applied 48 hr prior inoculation relative to control; type: functional
Botrytis cinerea [31] = test: Protective antifungal activity against Botryotinia fuckeliana inoculated in fungicide-applied strawberry fruit assessed as disease control efficacy at 1 ug AI/ml applied 48 hr prior inoculation relative to control; type: functional
Botrytis cinerea [32] = test: Protective antifungal activity against Botryotinia fuckeliana inoculated in fungicide-applied strawberry fruit assessed as disease severity measuring lesion diameter at 100 ug AI/ml applied 48 hr prior inoculation; type: functional
Botrytis cinerea [33] = test: Protective antifungal activity against Botryotinia fuckeliana inoculated in fungicide-applied strawberry fruit assessed as disease severity measuring lesion diameter at 10 ug AI/ml applied 48 hr prior inoculation; type: functional
Botrytis cinerea [34] = test: Protective antifungal activity against Botryotinia fuckeliana inoculated in fungicide-applied strawberry fruit assessed as disease severity measuring lesion diameter at 1 ug AI/ml applied 48 hr prior inoculation; type: functional
Botrytis cinerea [35] = test: Protective antifungal activity against Botryotinia fuckeliana inoculated in fungicide-applied strawberry fruit assessed as disease control efficacy at 100 ug AI/ml applied 96 hr prior-inoculation relative to control; type: functional
Botrytis cinerea [36] = test: Curative antifungal activity against Botryotinia fuckeliana inoculated in strawberry fruit assessed as disease severity measuring lesion diameter at 1 ug AI/ml applied 48 hr post-inoculation; type: functional
Botrytis cinerea [37] = test: Protective antifungal activity against Botryotinia fuckeliana inoculated in fungicide-applied strawberry fruit assessed as disease control efficacy at 100 ug AI/ml applied 24 hr prior inoculation relative to control; type: functional
Botrytis cinerea [38] = test: Protective antifungal activity against Botryotinia fuckeliana inoculated in fungicide-applied strawberry fruit assessed as disease control efficacy at 10 ug AI/ml applied 24 hr prior inoculation relative to control; type: functional
Botrytis cinerea [39] = test: Protective antifungal activity against Botryotinia fuckeliana inoculated in fungicide-applied strawberry fruit assessed as disease severity measuring lesion diameter at 100 ug AI/ml applied 24 hr prior inoculation; type: functional

O=C(NCCc1ncc(C(F)(F)F)cc1Cl)c1ccccc1C(F)(F)F [FLUOPYRAM]
Efficacy (Botrytis cinerea [1]): 79.3%
Efficacy (Botrytis cinerea [2]): 77.3%
Efficacy (Botrytis cinerea [3]): 69.7%
Efficacy (Botrytis cinerea [4]): 53%
Activity (Botrytis cinerea [5]): 3.9 mm
Activity (Botrytis cinerea [6]): 4.2 mm
Efficacy (Botrytis cinerea [7]): 92.2%
Efficacy (Botrytis cinerea [8]): 82.9%
Efficacy (Botrytis cinerea [9]): 81.2%
Efficacy (Botrytis cinerea [10]): 63.3%
Activity (Botrytis cinerea [11]): 1.4 mm
Activity (Botrytis cinerea [12]): 3.5 mm
EC50 (Botrytis cinerea [13]): 0.1 µg/mL (≈ 0.252 µM)
EC50 (Botrytis cinerea [14]): 0.13 µg/mL (≈ 0.328 µM)
EC50 (Botrytis cinerea [15]): 0.11 µg/mL (≈ 0.277 µM)
growth inhibition (GI) (Botrytis cinerea [16]): Active
growth inhibition (GI) (Botrytis cinerea [17]): Active
Efficacy (Botrytis cinerea [18]): 62.5%
Efficacy (Botrytis cinerea [19]): 45.1%
growth inhibition (GI) (Botrytis cinerea [20]): Active
Efficacy (Botrytis cinerea [21]): 53.6%
Activity (Botrytis cinerea [22]): 0.7 mm
Activity (Botrytis cinerea [23]): 3.9 mm
Activity (Botrytis cinerea [24]): 4.2 mm
Activity (Botrytis cinerea [25]): 8.7 mm
Activity (Botrytis cinerea [26]): 11.8 mm
Activity (Botrytis cinerea [27]): 1.1 mm
Activity (Botrytis cinerea [28]): 6.3 mm
Efficacy (Botrytis cinerea [29]): 95.9%
Efficacy (Botrytis cinerea [30]): 87.7%
Efficacy (Botrytis cinerea [31]): 54.3%
Activity (Botrytis cinerea [32]): 1.1 mm
Activity (Botrytis cinerea [33]): 5.5 mm
Activity (Botrytis cinerea [34]): 8.6 mm
Efficacy (Botrytis cinerea [35]): 93.9%
Activity (Botrytis cinerea [36]): 6.9 mm
Efficacy (Botrytis cinerea [37]): 100%
Efficacy (Botrytis cinerea [38]): 77.2%
Activity (Botrytis cinerea [39]): 0 mm
